Assay results: patent publication US6133311A, “Method for preventing or treating elevated blood lipid level-related diseases by administering natural phenolic compounds” (priority 1998, dated 2000)

Legend:
[1] = plasma cholesterol, HDL-cholesterol and neutral lipid levels in rats fed a high-cholesterol diet; type: in vivo, Sprague-Dawley rats; conditions: six weeks; for HDL-C/Total-C ratio higher than in the control group / neutral lipid content lower than in the Control group / total plasma cholesterol level lower than in the Control group: 0.1% in diet; for HDL-C / Total-C / HDL-C (HDL-cholesterol) / TG (triglyceride) / Total-C (total cholesterol): 1% cholesterol plus 0.1% compound in diet; for HDL-C / Total-C: Control 28; for HDL-C (HDL-cholesterol): Control 38 ± 2; for TG (triglyceride): Control 98 ± 5; for Total-C (total cholesterol): Control 135 ± 6
Text: Effect of Tannin, Gallic acid or Ellagic acid on Plasma Cholesterol, HDL-Cholesterol and Neutral Lipid Levels
(Step 1) Administration of tannin or gallic acid to rats
30 three-week-old white Sprague-Dawley rats (Taihan laboratory animal center, Korea), each weighing about 90 to 110 g, were evenly divided into three dietary groups by a randomized block design. The rats of the three groups were fed with three different high-cholesterol diets, i.e., AIN-76 laboratory animal diet (ICN Biochemicals, Cleveland, Ohio, U.S.A.) containing 1% cholesterol (Control group), 1% cholesterol plus 0.1% tannin group (tannin group) and 1% cholesterol plus 0.1% gallic acid, respectively.
The rats were allowed to feed freely on the specified diet together with water for six weeks, the ingestion amount was recorded daily and the rats were weighed every 7 days, and then the record was analyzed.
(Step 2) Determination of total cholesterol, HDL-cholesterol and neutral lipid content in blood
The effects of administering tannin or gallic acid to rats on the plasma cholesterol and neutral lipid contents were determined as follows.
The rats of the three dietary groups obtained in Step 1 were sacrificed and blood samples were taken therefrom. The blood was allowed to stand for 2 hours and centrifuged at 3,000 rpm for 15 minutes and the supernatant was separated and stored in a deep freezer before use. The chemical analysis of blood was carried out by employing a blood chemical analyzer (CIBA Corning 550 Express, USA) to determine the changes in total cholesterol, HDL-cholesterol and triglyceride levels.

ACAT = molecular target: T1, ACAT (Rattus norvegicus, UniProt Q7TQM4); assay: ACAT inhibition in liver microsomes of fed rats; type: biochemical; conditions: liver microsomes of rats fed 0.1% compound, vs Control
T1 construct: microsomes were separated from liver tissues to be used as an enzyme source; from tissue; host or cells: rat liver microsomes
T1 sequence (Q7TQM4 1-524): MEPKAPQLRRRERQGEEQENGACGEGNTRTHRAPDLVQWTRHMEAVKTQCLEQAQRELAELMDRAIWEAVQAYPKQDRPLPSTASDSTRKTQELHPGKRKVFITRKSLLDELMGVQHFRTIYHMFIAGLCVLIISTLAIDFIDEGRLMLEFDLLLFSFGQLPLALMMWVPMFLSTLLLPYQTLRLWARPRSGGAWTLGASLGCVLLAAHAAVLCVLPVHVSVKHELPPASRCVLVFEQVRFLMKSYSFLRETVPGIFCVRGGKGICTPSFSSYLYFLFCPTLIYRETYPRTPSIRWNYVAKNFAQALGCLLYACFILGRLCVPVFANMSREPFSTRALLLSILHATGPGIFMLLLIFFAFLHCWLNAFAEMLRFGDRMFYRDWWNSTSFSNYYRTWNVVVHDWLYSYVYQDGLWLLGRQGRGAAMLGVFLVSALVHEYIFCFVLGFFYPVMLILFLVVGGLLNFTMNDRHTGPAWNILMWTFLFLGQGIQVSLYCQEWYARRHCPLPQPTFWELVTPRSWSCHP
Procedure: Activity of Tannin or gallic acid in ACAT Inhibition
To determine the effect of feeding tannin or gallic acid to rats on the activity of ACAT, microsomes were separated from liver tissues to be used as an enzyme source.
1 g each of the livers taken from each group of rats of Example 2 was homogenized in 5 ml of homogenization medium (0.1 M KH2 PO4, pH 7.4, 0.1 mM EDTA and 10 mM β-mercaptoethanol). The homogenate was centrifuged at 3,000xg for 15 min. at 4° C. and the supernatant thus obtained was centrifuged at 15,000xg for 15 min. at 4° C. to obtain a supernatant. The supernatant was put into an ultracentrifuge tube (Beckman) and centrifuged at 100,000 xg for 1 hour at 4° C. to obtain microsomal pellets, which were then suspended in 3 ml of the homogenization medium and centrifuged at 100,000 xg for 1 hour at 4° C. […] The protein concentration of the resulting suspension was determined by Lowry's method and then adjusted to 4 to 8 mg/ml. […]
200 μl of the resulting supernatant was put in a scintillation bottle and 4 ml of scintillation fluid (Lumac) was added thereto. The mixture was assayed for radioactivity with 1450 Microbeta liquid scintillation counter (Wallacoy, Finland). ACAT activity was calculated as picomoles of cholesteryl oleate synthesized per min. per mg protein (pmoles/min/mg protein) The result is shown in Table III.

Compound	HDL-C/Total-C ratio higher than in the control group [1] [%]	neutral lipid content lower than in the Control group [1] [%]	total plasma cholesterol level lower than in the Control group [1] [%]	HDL-C / Total-C [1] [%]	HDL-C (HDL-cholesterol) [1] [mg/dL]	TG (triglyceride) [1] [mg/dL]	Total-C (total cholesterol) [1] [mg/dL]	% Inhibition on ACAT activity (ACAT) [%]
tannin	54	21	35	43	37 ± 2	76 ± 3	88 ± 4	41.7
O=C(O)c1cc(O)c(O)c(O)c1 [Gallic acid, gallic acid]	21	22	31	34	32 ± 3	77 ± 4	93 ± 5	42.1
